# PubChem BioAssay (NCI)
#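 Each compound was tested at five concentrations against cells in 96-well plates for 48 hours. The concentration for full growth arrest is given as TGI.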
# Legend:
# Assay in all cases: NCI-60 cell line screen, 48 h
# SF-268 CNS = system: SF-268 CNS
# MDA-MB-435 = system: MDA-MB-435
# RPMI-8226 leukemia = system: RPMI-8226 leukemia
# A549 NSCLC = system: A549 NSCLC
# SNB-19 CNS = system: SNB-19 CNS
# COLO 205 colon = system: COLO 205 colon
# HL-60(TB) leukemia = system: HL-60(TB) leukemia
# NCI/ADR-RES ovarian = system: NCI/ADR-RES ovarian
# OVCAR-5 ovarian = system: OVCAR-5 ovarian
# M14 melanoma = system: M14 melanoma
# MDA-N = system: MDA-N
# OVCAR-3 ovarian = system: OVCAR-3 ovarian
# HT29 colon = system: HT29 colon
# HCT-15 colon = system: HCT-15 colon
# SK-MEL-5 melanoma = system: SK-MEL-5 melanoma
# HCC-2998 colon = system: HCC-2998 colon
# EKVX NSCLC = system: EKVX NSCLC
# LOX IMVI melanoma = system: LOX IMVI melanoma
# A498 renal = system: A498 renal
# K-562 leukemia = system: K-562 leukemia
# ACHN renal = system: ACHN renal
# HS 578T breast = system: HS 578T breast
# KM12 colon = system: KM12 colon
# HOP-92 NSCLC = system: HOP-92 NSCLC
# SF-539 CNS = system: SF-539 CNS
# SNB-75 CNS = system: SNB-75 CNS
# HOP-62 NSCLC = system: HOP-62 NSCLC
# MDA-MB-231 breast = system: MDA-MB-231 breast
# T-47D breast = system: T-47D breast
# SR leukemia = system: SR leukemia
# MCF7 breast = system: MCF7 breast
# TK-10 renal = system: TK-10 renal
# UACC-257 melanoma = system: UACC-257 melanoma
# SW-620 colon = system: SW-620 colon
# UO-31 renal = system: UO-31 renal
# NCI-H23 lung = system: NCI-H23 lung
# U251 CNS = system: U251 CNS
# OVCAR-8 ovarian = system: OVCAR-8 ovarian
# HCT-116 colon = system: HCT-116 colon
# SK-OV-3 ovarian = system: SK-OV-3 ovarian
# UACC-62 melanoma = system: UACC-62 melanoma
# SF-295 CNS = system: SF-295 CNS
# 786-0 renal = system: 786-0 renal
# PC-3 prostate = system: PC-3 prostate
# NCI-H522 lung = system: NCI-H522 lung
# DU-145 prostate = system: DU-145 prostate
# MALME-3M melanoma = system: MALME-3M melanoma
# NCI-H460 lung = system: NCI-H460 lung
# SK-MEL-28 melanoma = system: SK-MEL-28 melanoma
# NCI-H226 lung = system: NCI-H226 lung
# CAKI-1 renal = system: CAKI-1 renal
# SN12C renal = system: SN12C renal
# CCRF-CEM leukemia = system: CCRF-CEM leukemia
# RXF 393 renal = system: RXF 393 renal
# MOLT-4 leukemia = system: MOLT-4 leukemia
# IGROV1 ovarian = system: IGROV1 ovarian
# OVCAR-4 ovarian = system: OVCAR-4 ovarian
structure (smiles),measurement,setting,value
CCCCc1ccc(-n2c(C)c(COC(=O)NC)c(COC(=O)NC)c2C)cc1,TGI,SF-268 CNS,20.3 µM
same,TGI,MDA-MB-435,28.1 µM
same,TGI,RPMI-8226 leukemia,19.8 µM
same,TGI,A549 NSCLC,19.6 µM
same,TGI,SNB-19 CNS,30.4 µM
same,TGI,COLO 205 colon,19.6 µM
same,TGI,HL-60(TB) leukemia,24.4 µM
same,TGI,NCI/ADR-RES ovarian,27.4 µM
same,TGI,OVCAR-5 ovarian,17.1 µM
same,TGI,M14 melanoma,24.5 µM
same,TGI,MDA-N,31.3 µM
same,TGI,OVCAR-3 ovarian,24.5 µM
same,TGI,HT29 colon,24.9 µM
same,TGI,HCT-15 colon,20.9 µM
same,TGI,SK-MEL-5 melanoma,23.5 µM
same,TGI,HCC-2998 colon,30.7 µM
same,TGI,EKVX NSCLC,27.8 µM
same,TGI,LOX IMVI melanoma,18.4 µM
same,TGI,A498 renal,2.6 µM
same,TGI,K-562 leukemia,> 100 µM
same,TGI,ACHN renal,7.22 µM
same,TGI,HS 578T breast,45.9 µM
same,TGI,KM12 colon,29.3 µM
same,TGI,HOP-92 NSCLC,11.5 µM
same,TGI,SF-539 CNS,15.9 µM
same,TGI,SNB-75 CNS,19.4 µM
same,TGI,HOP-62 NSCLC,21.6 µM
same,TGI,MDA-MB-231 breast,17.8 µM
same,TGI,T-47D breast,27 µM
same,TGI,SR leukemia,17.2 µM
same,TGI,MCF7 breast,19.3 µM
same,TGI,TK-10 renal,12.4 µM
same,TGI,UACC-257 melanoma,24 µM
same,TGI,SW-620 colon,21.4 µM
same,TGI,UO-31 renal,10.6 µM
same,TGI,NCI-H23 lung,26.4 µM
same,TGI,U251 CNS,17.4 µM
same,TGI,OVCAR-8 ovarian,16.5 µM
same,TGI,HCT-116 colon,17.8 µM
same,TGI,SK-OV-3 ovarian,14.1 µM
same,TGI,UACC-62 melanoma,10.5 µM
same,TGI,SF-295 CNS,24.4 µM
same,TGI,786-0 renal,16 µM
same,TGI,PC-3 prostate,32 µM
same,TGI,NCI-H522 lung,9.3 µM
same,TGI,DU-145 prostate,26.3 µM
same,TGI,MALME-3M melanoma,22 µM
same,TGI,NCI-H460 lung,18 µM
same,TGI,SK-MEL-28 melanoma,33.8 µM
same,TGI,NCI-H226 lung,2.85 µM
same,TGI,CAKI-1 renal,15.9 µM
same,TGI,SN12C renal,14.5 µM
same,TGI,CCRF-CEM leukemia,18.4 µM
same,TGI,RXF 393 renal,9.8 µM
CCOC(=O)NC(Nc1ncn(C(NC(=O)OCC)(C(F)(F)F)C(F)(F)F)n1)(C(F)(F)F)C(F)(F)F,TGI,SF-268 CNS,> 100 µM
same,TGI,MOLT-4 leukemia,> 100 µM
same,TGI,MDA-MB-435,> 100 µM
same,TGI,RPMI-8226 leukemia,> 100 µM
same,TGI,IGROV1 ovarian,> 100 µM
same,TGI,A549 NSCLC,> 100 µM
same,TGI,SNB-19 CNS,> 100 µM
same,TGI,COLO 205 colon,> 100 µM
same,TGI,HL-60(TB) leukemia,> 100 µM
same,TGI,NCI/ADR-RES ovarian,> 100 µM
same,TGI,OVCAR-5 ovarian,> 100 µM
same,TGI,M14 melanoma,> 100 µM
same,TGI,MDA-N,> 100 µM
same,TGI,OVCAR-3 ovarian,> 100 µM
same,TGI,HT29 colon,> 100 µM
same,TGI,HCT-15 colon,> 100 µM
same,TGI,SK-MEL-5 melanoma,> 100 µM
same,TGI,HCC-2998 colon,> 100 µM
same,TGI,EKVX NSCLC,> 100 µM
same,TGI,LOX IMVI melanoma,> 100 µM
same,TGI,A498 renal,> 100 µM
same,TGI,K-562 leukemia,> 100 µM
same,TGI,OVCAR-4 ovarian,> 100 µM
same,TGI,ACHN renal,> 100 µM
same,TGI,HS 578T breast,> 100 µM
same,TGI,KM12 colon,> 100 µM
same,TGI,HOP-92 NSCLC,> 100 µM
same,TGI,SF-539 CNS,> 100 µM
same,TGI,SNB-75 CNS,> 100 µM
same,TGI,HOP-62 NSCLC,> 100 µM
same,TGI,MDA-MB-231 breast,> 100 µM
same,TGI,T-47D breast,> 100 µM
same,TGI,SR leukemia,> 100 µM
same,TGI,MCF7 breast,> 100 µM
same,TGI,TK-10 renal,> 100 µM
same,TGI,UACC-257 melanoma,> 100 µM
same,TGI,SW-620 colon,> 100 µM
same,TGI,UO-31 renal,30.3 µM
same,TGI,NCI-H23 lung,> 100 µM
same,TGI,U251 CNS,> 100 µM
same,TGI,OVCAR-8 ovarian,> 100 µM
same,TGI,HCT-116 colon,> 100 µM
same,TGI,SK-OV-3 ovarian,> 100 µM
same,TGI,UACC-62 melanoma,> 100 µM
same,TGI,SF-295 CNS,> 100 µM
same,TGI,786-0 renal,> 100 µM
same,TGI,PC-3 prostate,> 100 µM
same,TGI,DU-145 prostate,> 100 µM
same,TGI,MALME-3M melanoma,> 100 µM
same,TGI,NCI-H460 lung,> 100 µM
same,TGI,SK-MEL-28 melanoma,> 100 µM
same,TGI,NCI-H226 lung,> 100 µM
same,TGI,CAKI-1 renal,> 100 µM
same,TGI,SN12C renal,> 100 µM
same,TGI,CCRF-CEM leukemia,> 100 µM
same,TGI,RXF 393 renal,> 100 µM
